Experimental data taken from US10392348B2, “2-oxo-3,4-dihydroquinoline compounds as plant growth regulators” (Syngenta Participations AG, priority 2015, dated 2019).
Read-outs that look alike come from different tables or passages of the source.

Columns and labels:
[1] = system: soybean plants (variety S20-G7); experiment: Reduced plant water use in soybean (foliar spray, repeated weighing of pots); format: in vivo; conditions: vs negative control; for change in vivo at 500 µM: Glycine max, foliar, Table B1, sprayed at 500 μM; for % WU 0 DAA AM*: 0 DAA a.m.; for % WU 0DAA PM: 0 DAA p.m.; for % WU 1DAA AM: 1 DAA a.m.; for % WU 1DAA PM: 1 DAA p.m.; for % WU 2 DAA AM: 2 DAA a.m.; for % WU 2 DAA PM: 2 DAA p.m.
Procedure: Compounds were tested for their effect on reducing plant water use as follows. Each compound was dissolved in a blank emulsifiable concentrate (EC) formulation that was then diluted to the desired concentration with water containing additional surfactant (EXTRAVON 1 g/20 L). The compounds were applied by foliar spray to 12 day old soybean plants (variety S20-G7) grown in controlled environment plant growth chambers. Plant water use during the day was assessed by repeated weighing of the pots in which the plants were grown before and after application of the compounds at the indicated times (expressed in days after application (DAA)). The water use data before application was used to correct any differences in water use arising due to non-treatment effects (e.g. due to differences in plant size). The untransformed water use values were subjected to an analysis of covariance, fitting the effect of treatment and using the baseline water use 1 day before application as a covariate.
The results are expressed compared to negative control treatment (diluted EC formulation without active ingredient but with EXTRAVON 1 g/20 L).
Application of the chemicals (0 DAA) takes place approximately between 08:00 and 09:30 a.m. WU is measured within day time (chamber light is on 06:00 to 20:00) at these timepoints: 0 DAA a.m. (10:30-12:50), 0 DAA p.m. (14:00-19:50), 1 DAA a.m. (7:30-12:50), 1 DAA p.m. (14:00-19:50), 2 DAA a.m. (07:30-12:50) and 2 DAA p.m. (14:00-19:50). The cumulative total WU (0-2.5 DAA) is calculated by summing the WU data mentioned above.

[2] = system: corn plants (variety NK OCTET); experiment: Reduced plant water use in corn (foliar spray, repeated weighing of pots); format: in vivo; conditions: Zea mays, corn plants sprayed at 500 μM, average of 6 pots
Procedure: Compounds were tested for their effect on reducing plant water use as follows. The compounds were applied by foliar spray to 12 day old corn plants (variety NK OCTET) grown in controlled environment plant growth chambers. All compounds were applied using an emulsifiable concentrate (EC) formulation that was diluted to the desired concentrations with water containing 0.4% of the adjuvant rape seed methyl ester. Plant water use during the day was assessed by repeated weighing of the pots in which the plants were grown before and after application of the compounds at the indicated times (expressed in days after application (DAA)). The water use data before application was used to correct any differences in water use arising due to non-treatment effects (e.g. due to differences in plant size). The untransformed water use values were subjected to an analysis of covariance, fitting the effect of treatment and using the baseline water use 1 day before application as a covariate. Application of the chemicals (0 DAA) takes place approximately between 08:00 and 09:30 a.m. WU is measured within day time (chamber light is on 06:00 to 20:00) at these timepoints: 0 DAA a.m. (10:30-12:50), 0 DAA p.m. (14:00-19:50), 1 DAA a.m. (07:30-12:50), 1 DAA p.m. (14:00-19:50), 2 DAA a.m. (07:30-12:50) and 2 DAA p.m. (14:00-19:50). The cumulative total WU (0-2.5 DAA) is calculated by summing the WU data mentioned above.

[3] = 0 h, 0 DAA a.m. (10:30-12:50), read-out: % WU 0 DAA AM
[4] = 24 h, 1 DAA a.m. (7:30-12:50), read-out: % WU 1DAA AM
[5] = 24 h, 1 DAA p.m. (14:00-19:50), read-out: % WU 1DAA PM
[6] = 48 h, 2 DAA a.m. (07:30-12:50), read-out: % WU 2 DAA AM
[7] = 48 h, 2 DAA p.m. (14:00-19:50), read-out: % WU 2 DAA PM
[8] = 60 h, cumulative total WU (0-2.5 DAA), read-out: % WU Total 0 to 2.5 DAA
[9] = 0 h, water use during day time vs negative control, 0 DAA a.m. (10:30-12:50), read-out: % WU 0 DAA AM
[10] = 0 h, water use during day time vs negative control, 0 DAA p.m. (14:00-19:50), read-out: % WU 0DAA PM
[11] = 24 h, water use during day time vs negative control, 1 DAA a.m. (07:30-12:50), read-out: % WU 1DAA AM
[12] = 24 h, water use during day time vs negative control, 1 DAA p.m. (14:00-19:50), read-out: % WU 1DAA PM
[13] = 48 h, water use during day time vs negative control, 2 DAA a.m. (07:30-12:50), read-out: % WU 2 DAA AM
[14] = 48 h, water use during day time vs negative control, 2 DAA p.m. (14:00-19:50), read-out: % WU 2 DAA PM
[15] = 60 h, cumulative total water use 0-2.5 DAA (sum of the time points) vs negative control, read-out: % WU Total 0 to 2.5 DAA

## CCCN1C(=O)CCc2cc(CNS(=O)(=O)CCCC(F)(F)F)ccc21 [Compound 3.020, 4,4,4-trifluoro-N-[(2-oxo-1-propyl-3,4-dihydroquinolin-6-yl)methyl]butane-1-sulfonamide]
[1]; [3]
  change in vivo at 500 µM: -19.3%
[1]; [4]
  change in vivo at 500 µM: -10.1%
[1]; [5]
  change in vivo at 500 µM: -5.5%
[1]; [6]
  change in vivo at 500 µM: -7.4%
[1]; [7]
  change in vivo at 500 µM: -4.2%
[1]; [8]
  change in vivo at 500 µM: -8.5%
[2]; [9]
  change in vivo at 500 µM: -19.2%
[2]; [10]
  change in vivo at 500 µM: -13.7%
[2]; [11]
  change in vivo at 500 µM: -14.8%
[2]; [12]
  change in vivo at 500 µM: -12.1%
[2]; [13]
  change in vivo at 500 µM: -11.5%
[2]; [14]
  change in vivo at 500 µM: -8.5%
[2]; [15]
  change in vivo at 500 µM: -12.7%

## CCCN1C(=O)CCc2cc(CNS(=O)(=O)/C=C/c3ccccc3F)ccc21 [Compound 3.056, (E)-2-(2-fluorophenyl)-N-[(2-oxo-1-propyl-3,4-dihydroquinolin-6-yl)methyl]ethenesulfonamide]
[2]; [9]
  change in vivo at 500 µM: -8.4%
[2]; [10]
  change in vivo at 500 µM: -2.7%
[2]; [11]
  change in vivo at 500 µM: -5.6%
[2]; [12]
  change in vivo at 500 µM: -4.4%
[2]; [13]
  change in vivo at 500 µM: -4.7%
[2]; [14]
  change in vivo at 500 µM: -3.2%
[2]; [15]
  change in vivo at 500 µM: -4.6%

## CCCN1C(=O)CCc2cc(CNS(=O)(=O)CCC)ccc21 [Compound 3.062, N-[(2-oxo-1-propyl-3,4-dihydroquinolin-6-yl)methyl]propane-1-sulfonamide]
[2]; [9]
  change in vivo at 500 µM: -17.8%
[2]; [10]
  change in vivo at 500 µM: -13%
[2]; [11]
  change in vivo at 500 µM: -13%
[2]; [12]
  change in vivo at 500 µM: -9.8%
[2]; [13]
  change in vivo at 500 µM: -8.1%
[2]; [14]
  change in vivo at 500 µM: -6.3%
[2]; [15]
  change in vivo at 500 µM: -10.5%

## C/C=C/CS(=O)(=O)NCc1ccc2c(c1)CCC(=O)N2CCC [Compound 3.066, (E)-N-[(2-oxo-1-propyl-3,4-dihydroquinolin-6-yl)methyl]but-2-ene-1-sulfonamide]
[2]; [9]
  change in vivo at 500 µM: -10.8%
[2]; [10]
  change in vivo at 500 µM: -7.1%
[2]; [11]
  change in vivo at 500 µM: -7.1%
[2]; [12]
  change in vivo at 500 µM: -6.8%
[2]; [13]
  change in vivo at 500 µM: -4.7%
[2]; [14]
  change in vivo at 500 µM: -5.5%
[2]; [15]
  change in vivo at 500 µM: -6.4%

## C=CCS(=O)(=O)NCc1ccc2c(c1)CCC(=O)N2CCC [Compound 3.071, N-[(2-oxo-1-propyl-3,4-dihydroquinolin-6-yl)methyl]prop-2-ene-1-sulfonamide]
[2]; [9]
  change in vivo at 500 µM: -11.2%
[2]; [10]
  change in vivo at 500 µM: -6.5%
[2]; [11]
  change in vivo at 500 µM: -4.5%
[2]; [12]
  change in vivo at 500 µM: -4.7%
[2]; [13]
  change in vivo at 500 µM: -3.5%
[2]; [14]
  change in vivo at 500 µM: -2.4%
[2]; [15]
  change in vivo at 500 µM: -4.9%

## CCCN1C(=O)CCc2cc(C3(NS(=O)(=O)c4ccccc4)CC3)ccc21 [Compound 15.001, N-[1-(2-oxo-1-propyl-3,4-dihydroquinolin-6-yl)cyclopropyl]benzenesulfonamide]
[1]; [3]
  change in vivo at 500 µM: -27.4%
[1]; [4]
  change in vivo at 500 µM: -14.9%
[1]; [5]
  change in vivo at 500 µM: -13.9%
[1]; [6]
  change in vivo at 500 µM: -9.5%
[1]; [7]
  change in vivo at 500 µM: -7.2%
[1]; [8]
  change in vivo at 500 µM: -15.1%
[2]; [9]
  change in vivo at 500 µM: -8.2%
[2]; [10]
  change in vivo at 500 µM: -6.5%
[2]; [11]
  change in vivo at 500 µM: -6.5%
[2]; [12]
  change in vivo at 500 µM: -3.5%
[2]; [13]
  change in vivo at 500 µM: -2.8%
[2]; [14]
  change in vivo at 500 µM: -1.8%
[2]; [15]
  change in vivo at 500 µM: -4.3%

## CCCN1C(=O)CCc2cc(C3(NS(=O)(=O)c4ccc(F)cc4)CC3)ccc21 [Compound 15.009, 4-fluoro-N-[1-(2-oxo-1-propyl-3,4-dihydroquinolin-6-yl)cyclopropyl]benzenesulfonamide]
[2]; [9]
  change in vivo at 500 µM: -10.7%
[2]; [10]
  change in vivo at 500 µM: -7.8%
[2]; [11]
  change in vivo at 500 µM: -8.7%
[2]; [12]
  change in vivo at 500 µM: -5.8%
[2]; [13]
  change in vivo at 500 µM: -5.4%
[2]; [14]
  change in vivo at 500 µM: -5.7%
[2]; [15]
  change in vivo at 500 µM: -7.1%

## CCN1C(=O)CC(C)c2cc(CNS(=O)(=O)c3ccc(F)cc3F)ccc21 (centres unmarked) [Compound 20.006, N-[(1-ethyl-4-methyl-2-oxo-3,4-dihydroquinolin-6-yl)methyl]-2,4-difluoro-benzenesulfonamide]
[2]; [9]
  change in vivo at 500 µM: -15.5%
[2]; [10]
  change in vivo at 500 µM: -14.5%
[2]; [11]
  change in vivo at 500 µM: -13.2%
[2]; [12]
  change in vivo at 500 µM: -7%
[2]; [13]
  change in vivo at 500 µM: -5.7%
[2]; [14]
  change in vivo at 500 µM: -4.3%
[2]; [15]
  change in vivo at 500 µM: -9.4%

## CCCN1C(=O)CCc2cc(NS(=O)(=O)Cc3ccc(C)cc3)ccc21 [Quinabactin, quinabactin, reference compound]
[1]; Table B2, rate 31.25 uM
  % WU 0 DAA AM*: −0.3%
  % WU 0DAA PM: −0.3%
  % WU 1DAA AM: 0.2%
  % WU 1DAA PM: −0.1%
  % WU 2 DAA AM: −0.9%
  % WU 2 DAA PM: −1.3%
[1]; Table B2, rate 31.25 uM, cumulative total WU (0-2.5 DAA)
  % WU Total 0 to 2.5 DAA: −0.7%
[1]; Table B2, rate 125 uM
  % WU 0 DAA AM*: −15.3%
  % WU 0DAA PM: −5.7%
  % WU 1DAA AM: 1.8%
  % WU 1DAA PM: 2.9%
  % WU 2 DAA AM: 2.4%
  % WU 2 DAA PM: 1.1%
[1]; Table B2, rate 125 uM, cumulative total WU (0-2.5 DAA)
  % WU Total 0 to 2.5 DAA: −0.5%
[1]; Table B2, rate 500 uM
  % WU 0 DAA AM*: −42.0%
  % WU 0DAA PM: −41.2%
  % WU 1DAA AM: −18.6%
  % WU 1DAA PM: −10.8%
  % WU 2 DAA AM: −3.8%
  % WU 2 DAA PM: −2.9%
[1]; Table B2, rate 500 uM, cumulative total WU (0-2.5 DAA)
  % WU Total 0 to 2.5 DAA: −16.9%
